In series [1] the target is T1, T. cruzi CYP51 (Trypanosoma cruzi, UniProt Q7Z1V1).
T1 construct: had the first 21 residues upstream of K22 replaced with the fragment MAKKKKK; His6 (C); made in house
Nature of the series: Low throughput UV-vis binding assay. The settings on record: read-out: KD. The procedure: Hit validation in the low throughput UV-vis binding assay was performed according to a previously published but somewhat modified protocol. UV-vis absorption spectra were recorded on a Cary scanning spectrophotometer (Varian) in the 1-cm path length quartz cuvette at 23°C in 100 mM potassium phosphate buffer, pH 7.5, containing 10% glycerol, with CYP51 concentration of 0.5 µM. Compound solutions used for titration were prepared in DMSO at 100 µM and added in 2-µl aliquots to each 3 ml sample using a P2 pipetman (Gilson). Binding affinity of hits was estimated using the quadratic tight-binding equation [27]: […]
where Aobs is the absorption shift determined at any ligand concentration; Amax is the maximal absorption shift obtained at saturation; KD is dissociation constant for the inhibitor-enzyme complex; S is the ligand concentration; Et is the total enzyme concentration.

The test system of series [2] is T. cruzi-infected skeletal myoblasts (intracellular amastigotes). Nature of the series: Hit cross-validation in T. cruzi-infected mammalian cells (image-based assay). The series is classed as cell-based, Trypanosoma cruzi. As to the method:
Bovine embryo skeletal muscle cells or mouse C2C12 myoblasts (ATCC#CRL-1772) used in the cross-validation assay, were cultivated respectively in RPMI 1640 medium supplemented with 5% horse serum and Dulbecco's Modified Eagle's Medium H-21 containing 4.5 g/l glucose (DMEM H-21) (Cell Culture Facility, UCSF), supplemented with 5% fetal bovine serum (FBS) (Sigma Chemical Co., St. Louis, MO, USA), 25 mM HEPES, 2 mM L-glutamine, 100 U/ml penicillin, 100 µg/ml streptomycin. T. cruzi CAI-72 trypomastigotes were obtained from supernatant of infected cultures 4 to 7 days post-infection. Cultures were maintained at 37°C in an atmosphere of 5% CO2. To harvest parasites, the supernatant of infected cultures containing released trypomastigotes was collected and centrifuged at 600 rpm for 5 min to remove cell debris; the pellet was then discarded and the trypomastigotes remaining in the media were concentrated by spinning the culture tubes at 3300 rpm for 15 minutes. The parasite pellet was re-suspended in 2–5 ml of fresh media. Trypomastigote concentration was determined using a Neubauer hemocytometer.
(§1) Compound cross-validation in T. cruzi infected skeletal myoblasts (bovine embryo skeletal muscle or C2C12 lineage) was performed according to the protocol adapted from Engel and co-authors. Compounds stored as 10 mM stocks in DMSO were freshly diluted immediately prior to use. […] To prepare plates for the assay, skeletal myoblasts cultured in […] flasks were washed once with phosphate buffered saline (PBS) and then incubated with 0.25% trypsin in PBS for 1–3 minutes for detachment. The trypsin solution was removed and myoblasts were released from the flask bottom. Fresh medium was added and cell concentration was determined using a Neubauer hemocytometer. Myoblasts in 50 µl of culture medium were transferred to the clear-bottom wells of black 96-well plates (Greiner Bio-One, #655090) at a density of 1500 cells/well and infected with 50 µl trypomastigote culture at 7500 parasites/well (1∶5 ratio). The cells were allowed to adhere and spread for 24 h in the incubator before the media was removed and 100 µl of fresh medium containing 0, 0.04, 0.12, 0.37, 1.10, 3.30 or 10 µM of test compound was added to each well, followed by 72 h incubation at 37°C in an atmosphere of 5% CO2. Posaconazole was used as a positive control at the same concentrations as the test compounds. The cells were then fixed by adding 100 µl/well of 8% formaldehyde in PBS, resulting in a 4% working concentration of formaldehyde. To stain the nucleus of the host cell and the nucleus and kinetoplast of parasites, cell membranes were first permeabilized by washing once with 100 µl of 0.1% Triton X-100 in PBS, then treated for 1 h with 0.2 µg/ml of the fluorescent DNA dye, 4,6-diamidino-2-phenylindole (DAPI), followed by one wash with PBS. The fixed plates were kept at 4°C and protected from light until images were acquired.
(§2) Plates were allowed to equilibrate to room temperature and images were acquired by the IN Cell Analyzer 2000 (GE Healthcare) with a 20× objective, 5 fields per well, with 350/50 nm and 460/40 nm fluorescent excitation and emission filters. In the absence of drug cytotoxicity, at least 800 cells were imaged and counted per well. The images were processed and analyzed by IN Cell Analyzer Developer 1.6 software. The size parameters used to segment host and parasite organelles were 125 µm^2 for host nucleus, and 1–2 µm^2 for parasite nucleus/kinetoplast. Since DAPI also strongly stains host heterochromatin regions that display as shapes resembling parasites ( Figure 3 ), particles co-localized to host nuclei were excluded from quantification, while parasite aggregates near the host nucleus were counted as infected cells.

Series [3] concerns host cell (skeletal myoblasts, bovine embryo skeletal muscle or C2C12). The experiment in a line: Host cell toxicity in the cross-validation assay. The series is classed as cell-based. The conditions noted are these: host cells in cross-validation assay, up to 10 µM. As to the method:
as §1
as §2, with “cells. Numbers of host cells and intracellular amastigotes were determined based on host cell and parasite nucleus and parasite kinetoplast quantification, providing a measure of growth inhibition during the first 72 h of post-infection treatment compared to untreated controls.” for “cells.”
^aToxicity was assessed as the highest percentage of host cell growth inhibition caused by compound treatment. Scores are assigned as 1-<20%; 2-21-30%; 3- 31-40%; 4-41-50% and 5->50% growth inhibition.

Series [4] has as its target T1, T. cruzi CYP51. Nature of the series: HTS spectral-mode binding screen, type II difference spectra scored 0-5.
The mark [5] stands for this setting: UV-vis titration, 0.5 µM CYP51, quadratic tight-binding equation, lower limit of method ~5 nM.
The mark [6] stands for this setting: T. cruzi-infected myoblasts, 72 h treatment, read-out: EC50 against T. cruzi parasites in HTS assay used to rank order the hits.
Setting [7] is: Trypanosoma cruzi, Myoblast, 72 h, T. cruzi-infected myoblasts, 72 h treatment, repurchased compound, read-out: EC50 averaged from two independent cross-validation assays for individually repurchased hits.
The mark [8] stands for this setting: Trypanosoma cruzi, Myoblast, 72 h, T. cruzi-infected myoblasts, 72 h treatment, read-out: EC50 against T. cruzi parasites in HTS assay used to rank order the hits.
Setting [9] is: spectral mode, four serial dilutions 2 µM to 12.5 µM, 2 µM CYP51.
Setting [10] is: type II difference spectra scored 0-5, second highest rated hit compound cluster.
Setting [11] is: Trypanosoma cruzi, Myoblast, 72 h, read-out: EC50 against T. cruzi parasites in HTS assay used to rank order the hits.

Read-outs that look alike come from different tables or passages of the source. Where only a bound is given, the exact number is not on record here.

T1 sequence (Q7Z1V1 15-481, looked up, natural form): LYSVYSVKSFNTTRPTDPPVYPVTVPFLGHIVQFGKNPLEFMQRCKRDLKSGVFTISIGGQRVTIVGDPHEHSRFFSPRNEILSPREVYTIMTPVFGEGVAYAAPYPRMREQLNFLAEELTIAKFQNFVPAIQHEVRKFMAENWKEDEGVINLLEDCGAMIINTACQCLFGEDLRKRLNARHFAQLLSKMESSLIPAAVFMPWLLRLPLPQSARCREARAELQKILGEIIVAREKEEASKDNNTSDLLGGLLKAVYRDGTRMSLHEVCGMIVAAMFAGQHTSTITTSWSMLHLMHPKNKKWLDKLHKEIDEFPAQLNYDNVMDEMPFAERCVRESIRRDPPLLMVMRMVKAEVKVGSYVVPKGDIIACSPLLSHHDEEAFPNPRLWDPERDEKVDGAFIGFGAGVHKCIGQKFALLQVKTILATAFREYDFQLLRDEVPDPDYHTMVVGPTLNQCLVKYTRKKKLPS

For `Clc1ccc(OCCCCCCn2ccnc2)cc1` [Compound 11], on T. cruzi CYP51 [1] (setting [5]), the Kd (usually the constant that tells how readily two partners part at equilibrium) worked out at 65 ± 15 nM. Also, the EC50 (usually the concentration giving half of the maximal effect) in series [2] (setting [6]) was 948 nM; in series [2] (setting [7]) it was 760 nM; in series [2] (setting [8]), 950 nM. Moreover, in series [3], the “Toxicity score (highest percentage of host cell growth inhibition)” value is 2 (2-21-30%).
`Cc1cccc(Nc2nc(-c3ccncc3)cs2)n1` [Compound 9] came in with an HTS binding score at T. cruzi CYP51 [4] (setting [9]) of 4. Also, the Kd on T. cruzi CYP51 [1] (setting [5]) is at most 5 nM. For the same molecule, the EC50 in series [2] (setting [6]) is 914 nM; in series [2] (setting [7]), 580 nM; in series [2] (setting [8]), 910 nM. Further, in series [3], the “Toxicity score (highest percentage of host cell growth inhibition)” value was 1 (1-<20%).
Turning to `COc1ccc(S(=O)(=O)NC(C)c2ccc(-n3ccnc3)cc2)c2ccccc12` (stereo not drawn) [Compound 3], the Kd on T. cruzi CYP51 [1] (setting [5]) is at most 5 nM. The values for the EC50 in series [2] (setting [6]), in series [2] (setting [7]) and in series [2] (setting [8]) were 484 nM, 200 nM and 480 nM, respectively. The “Toxicity score (highest percentage of host cell growth inhibition)” value in series [3] is given as 2 (2-21-30%).
Consider `COC(=O)C1=C(N)Oc2cc(C)n(CCc3ccc(OC)c(OC)c3)c(=O)c2C1c1cccnc1` (stereo not drawn) [Compound 6, methyl 2-amino-6-[2-(3,4-dimethoxyphenyl)ethyl]-7-methyl-5-oxo-4-pyridin-3-yl-5,6-dihydro-4H-pyrano[3,2-c]pyridine-3-carboxylate], for which the HTS binding score on T. cruzi CYP51 [4] (setting [9]) and at T. cruzi CYP51 [4] (setting [10]) was 3 each time. Further, the Kd at T. cruzi CYP51 [1] (setting [5]) worked out at 76 nM. Also, the EC50 in series [2] (setting [6]) turned out to be 614 nM; in series [2] (setting [8]) it was 610 nM; in series [2] (Trypanosoma cruzi, Myoblast, in Mus musculus, T. cruzi amastigotes cultured in mouse myoblasts, averaged from two independent assays, read-out: EC50 in low throughput validation (repurchased hit)) it was 80 nM. Further, the “Toxicity score (highest percentage of host cell growth inhibition)” value in series [3] was 1 (1-<20%).
As to `OC(c1ccccc1)(c1ccccc1)c1c[nH]cn1` [Compound 47], the HTS binding score on T. cruzi CYP51 [4] (setting [9]) is reported as 3. In addition, in series [2] (setting [11]), the EC50 amounted to 8220 nM. Besides, the “Toxicity score (highest percentage of host cell growth inhibition)” value in series [3] was 2 (2-21-30%).
The like results for `OC(/C=C/c1ccccc1)(Cn1ccnc1)c1ccncc1` (stereo not drawn) [Compound 12] were, in that order, 1, 1100 nM and 1 (1-<20%).
The like results for `N#C/C(=C\C=C\c1ccccc1)C(=O)NCc1cccnc1` [Compound 49] were, in that order, 3, 8260 nM and 1 (1-<20%).
Consider `Cc1ccc(CNC(=O)C(=O)NCC(c2cccnc2)N2CCN(Cc3ccccc3)CC2)cc1` (stereo not drawn) [Compound 14], for which, at T. cruzi CYP51 [4] (setting [9]), the HTS binding score is on record as 2. In addition, the EC50 in series [2] (setting [11]) worked out at 1670 nM. Further, the “Toxicity score (highest percentage of host cell growth inhibition)” value in series [3] was 4 (4-41-50%).
Take `Brc1ccccc1OCCCCn1ccnc1` [Compound 1b]: at T. cruzi CYP51 [1] (setting [5]), the Kd worked out at 66 ± 29 nM. Besides, the 50% effective concentration (EC50) in series [2] (setting [7]) stood at 4580 ± 2000 nM.
Regarding `CC1(C)CC(=O)C2=C(C1)c1c(ccc3ccccc13)NC2c1cccnc1` (stereo not drawn) [Compound 19], the HTS binding score on T. cruzi CYP51 [4] (setting [9]) and on T. cruzi CYP51 [4] (setting [10]) was 5 throughout. For the same molecule, the Kd on T. cruzi CYP51 [1] (T. cruzi CYP51) was at most 5 nM. Also, in series [2] (setting [8]), the EC50 came to 2500 nM. In series [3], the “Toxicity score (highest percentage of host cell growth inhibition)” value was 3 (3- 31-40%).
For the molecule `OC(/C=C/c1cccc(C(F)(F)F)c1)(Cn1ccnc1)c1cccnc1` (stereo not drawn) [Compound 23], the HTS binding score on T. cruzi CYP51 [4] (setting [9]) stood at 1. In addition, in series [2] (setting [11]), the EC50 was determined as 2890 nM. The “Toxicity score (highest percentage of host cell growth inhibition)” value in series [3] was 1 (1-<20%).
On the same counts, the results for `CCc1ccc(-c2cc3c(=O)n(CC(=O)NCc4cccnc4)nc(C)n3n2)cc1` [Compound 42] are 2, 7750 nM and 3 (3- 31-40%).
`Brc1ccc(-c2csc(-c3ccncc3)n2)cc1` [Compound 18] returned an HTS binding score on T. cruzi CYP51 [4] (setting [9]) of 3. Further, the EC50 in series [2] (setting [11]) was found to be 2380 nM. Besides, the “Toxicity score (highest percentage of host cell growth inhibition)” value in series [3] is on record as 1 (1-<20%).
`COC(=O)c1ccc(-c2ccncc2)s1` [Compound 21] showed an HTS binding score at T. cruzi CYP51 [4] (setting [9]) of 4. In series [2] (setting [11]), the concentration for a half-maximal effect (EC50) stood at 2740 nM. Further, the “Toxicity score (highest percentage of host cell growth inhibition)” value in series [3] is given as 2 (2-21-30%).
The molecule `O=C(/C=C/c1cccs1)c1ccncc1` [Compound 56] gave an HTS binding score at T. cruzi CYP51 [4] (setting [9]) of 3. Also, the EC50 in series [2] (setting [11]) came to 9620 nM. For the same molecule, the “Toxicity score (highest percentage of host cell growth inhibition)” value in series [3] is given as 3 (3- 31-40%).
Consider `Cc1ccc(OCC(=O)ONC(=N)c2cccnc2)c(Br)c1` [Compound 54], for which, on T. cruzi CYP51 [4] (setting [9]), the HTS binding score is 3. Also, in series [2] (setting [11]), the EC50 amounted to 9480 nM. For the same molecule, the “Toxicity score (highest percentage of host cell growth inhibition)” value in series [3] was 1 (1-<20%).
On T. cruzi CYP51 [4] (setting [9]), `c1ccc2c(c1)-c1ccccc1C2n1ccnc1` [Compound 36] displayed an HTS binding score of 1. The EC50 in series [2] (setting [11]) was 7240 nM. Moreover, the “Toxicity score (highest percentage of host cell growth inhibition)” value in series [3] is 3 (3- 31-40%).
Turning to `Brc1ccc(OCCCCCCn2ccnc2)cc1` [Compound 1a], the Kd on T. cruzi CYP51 [1] (setting [5]) was at most 5 nM. For the same molecule, in series [2] (setting [7]), the EC50 worked out at 930 ± 100 nM.
On T. cruzi CYP51 [4] (setting [10]), `CC1=C(C(=O)OC2CCCC2)C(c2ccncc2)C2=C(O)CC(C)(C)CC2=N1` (stereo not drawn) [Compound 2] yielded an HTS binding score of 4. Also, the EC50 is 306 nM in series [2] (setting [6]) and 310 nM in series [2] (setting [8]). Moreover, the “Toxicity score (highest percentage of host cell growth inhibition)” value in series [3] is 4 (4-41-50%).
